Literature values in patent US8999405B1 (priority 2013, dated 2015).

Experiments:
[1] = alkaline nitrogenous base of nicotine

CN1CCC[C@H]1c1cccnc1.O=C(O)c1ccccc1C(=O)O [Phthalic]
Solubility Alcohol (alcohol): soluble | Solubility Other (other solvent, named in the cell): insoluble: ether | Solubility Water (water): soluble

CN1CCC[C@H]1c1cccnc1 [nicotine I, 3-(1-methyl-2-pyrrolidinyl) pyridine]
pKa [1]: ~8.5
